Converted amounts (≈) assume the structure as drawn.
How the values were obtained:
Providencia stuartii [1] = experiment: Antibacterial activity against Providencia stuartii ATCC29916 assessed as inhibition of bacterial growth incubated for 24 hrs by broth microdilution method; type: functional
Klebsiella pneumoniae [2] = experiment: Antibacterial activity against Klebsiella pneumoniae KP63 assessed as inhibition of bacterial growth incubated for 18 to 24 hrs by microdilution method; type: functional; settings: time 18-24 hrs
Pseudomonas aeruginosa [3] = experiment: Antibacterial activity against Pseudomonas aeruginosa PA01 assessed as inhibition of bacterial growth incubated for 18 to 24 hrs by microdilution method; type: functional; settings: time 18-24 hrs
Pseudomonas aeruginosa [4] = experiment: Antibacterial activity against Pseudomonas aeruginosa PA124 assessed as inhibition of bacterial growth incubated for 18 to 24 hrs by microdilution method; type: functional; settings: time 18-24 hrs
Providencia stuartii [5] = experiment: Antibacterial activity against Providencia stuartii NEA16 assessed as inhibition of bacterial growth incubated for 18 to 24 hrs by microdilution method; type: functional; settings: time 18-24 hrs
Escherichia coli [6] = experiment: Antibacterial activity against Escherichia coli AG102 assessed as inhibition of bacterial growth incubated for 18 to 24 hrs in the presence of PAbetaN by microdilution method; type: functional; settings: time 18-24 hrs
CCRF-CEM [7] = experiment: Cytotoxicity against drug sensitive human CCRF-CEM cells assessed as inhibition of cell growth at 10 uM incubated for 72 hrs by resazurin dye based assay relative to control; type: functional
Staphylococcus aureus [8] = experiment: Antibacterial activity against Staphylococcus aureus […] assessed as inhibition of bacterial growth incubated for 24 hrs by broth microdilution method; type: functional
Enterococcus faecalis = experiment: Antibacterial activity against Enterococcus faecalis ATCC10541 assessed as inhibition of bacterial growth incubated for 24 hrs by broth microdilution method; type: functional
Pseudomonas aeruginosa [9] = experiment: Antibacterial activity against Pseudomonas aeruginosa PA124 assessed as inhibition of bacterial growth incubated for 18 to 24 hrs in the presence of PAbetaN by microdilution method; type: functional; settings: time 18-24 hrs
Klebsiella pneumoniae [10] = experiment: Antibacterial activity against Klebsiella pneumoniae KP63 assessed as inhibition of bacterial growth incubated for 18 to 24 hrs in presence of PAbetaN by microdilution method; type: functional; settings: time 18-24 hrs
Providencia stuartii [11] = experiment: Antibacterial activity against Providencia stuartii PS2636 assessed as inhibition of bacterial growth incubated for 18 to 24 hrs in the presence of PAbetaN by microdilution method; type: functional; settings: time 18-24 hrs
Staphylococcus aureus [12] = experiment: Antibacterial activity against methicillin-resistant Staphylococcus aureus 6 assessed as inhibition of bacterial growth incubated for 18 to 24 hrs in the presence of PAbetaN by microdilution method; type: functional; settings: time 18-24 hrs
Nannizzia gypsea = experiment: Antimicrobial activity against Microsporum gypseum E1420 assessed as inhibition of microbial growth incubated for 5 days by broth microdilution method; type: functional; settings: E1420, 120 h, time 5 day
Escherichia coli [13] = experiment: Antibacterial activity against Escherichia coli ATCC 10536 assessed as inhibition of bacterial growth incubated for 18 to 24 hrs in the presence of PAbetaN by microdilution method; type: functional; settings: time 18-24 hrs
Staphylococcus aureus [14] = experiment: Antibacterial activity against methicillin-resistant Staphylococcus aureus 4 assessed as inhibition of bacterial growth incubated for 18 to 24 hrs in the presence of PAbetaN by microdilution method; type: functional; settings: time 18-24 hrs
[15] = tested on: Meyerozyma guilliermondii; experiment: Antimicrobial activity against clinical isolate Candida guilliermondii assessed as inhibition of microbial growth incubated for 48 hrs by broth microdilution method; type: functional
Escherichia coli [16] = experiment: Antibacterial activity against Escherichia coli AG102 assessed as inhibition of bacterial growth incubated for 18 to 24 hrs by microdilution method; type: functional; settings: time 18-24 hrs
Staphylococcus aureus [17] = experiment: Antibacterial activity against methicillin-resistant Staphylococcus aureus 6 assessed as inhibition of bacterial growth incubated for 18 to 24 hrs by microdilution method; type: functional; settings: time 18-24 hrs
Candida albicans = experiment: Antimicrobial activity against Candida albicans ATCC 2091 assessed as inhibition of microbial growth incubated for 48 hrs by broth microdilution method; type: functional
Providencia stuartii [18] = experiment: Antibacterial activity against Providencia stuartii PS2636 assessed as inhibition of bacterial growth incubated for 18 to 24 hrs by microdilution method; type: functional; settings: time 18-24 hrs
Staphylococcus aureus [19] = experiment: Antibacterial activity against methicillin-resistant Staphylococcus aureus 4 assessed as inhibition of bacterial growth incubated for 18 to 24 hrs by microdilution method; type: functional; settings: time 18-24 hrs
Escherichia coli [20] = experiment: Antibacterial activity against Escherichia coli ATCC 10536 assessed as inhibition of bacterial growth incubated for 18 to 24 hrs by microdilution method; type: functional; settings: time 18-24 hrs
Providencia stuartii [21] = experiment: Antibacterial activity against Providencia stuartii NEA16 assessed as inhibition of bacterial growth incubated for 18 to 24 hrs in the presence of PAbN by microdilution method; type: functional; settings: time 18-24 hrs
Klebsiella pneumoniae [22] = experiment: Antibacterial activity against Klebsiella pneumoniae ATCC 11296 assessed as inhibition of bacterial growth incubated for 18 to 24 hrs in presence of PAbetaN by microdilution method; type: functional; settings: time 18-24 hrs
Klebsiella pneumoniae [23] = experiment: Antibacterial activity against Klebsiella pneumoniae ATCC 11296 assessed as inhibition of bacterial growth incubated for 18 to 24 hrs by microdilution method; type: functional; settings: time 18-24 hrs
Pseudomonas aeruginosa [24] = experiment: Antibacterial activity against Pseudomonas aeruginosa PA01 assessed as inhibition of bacterial growth incubated for 18 to 24 hrs in the presence of PAbetaN by microdilution method; type: functional; settings: time 18-24 hrs
ADR5000 cell line = experiment: Cytotoxicity against multidrug resistant human CEM/ADR5000 cells overexpressing p-glycoprotein assessed as inhibition of cell growth incubated for 72 hrs by resazurin dye based assay; type: functional; settings: ADR5000, 72 h
CCRF-CEM [25] = experiment: Cytotoxicity against drug sensitive human CCRF-CEM cells assessed as inhibition of cell growth incubated for 72 hrs by resazurin dye based assay; type: functional
SW480 = experiment: Antiproliferative activity against human SW480 cells assessed as inhibition of cell growth by MTT assay; type: functional, cell-based
RAW264.7 = experiment: Antiinflammatory activity in mouse RAW264.7 cells assessed as inhibition of LPS-induced NO production; type: functional, cell-based
HL-60 = experiment: Antiproliferative activity against human HL-60 cells assessed as inhibition of cell growth by MTT assay; type: functional, cell-based
A549 = experiment: Antiproliferative activity against human A549 cells assessed as inhibition of cell growth by MTT assay; type: functional, cell-based
MCF7 = experiment: Antiproliferative activity against human MCF7 cells assessed as inhibition of cell growth by MTT assay; type: functional, cell-based
SMMC-7721 = experiment: Antiproliferative activity against human SMMC-7721 cells assessed as inhibition of cell growth by MTT assay; type: functional, cell-based
[26] = Resistance index, ratio of IC50 for multidrug resistant human CEM/ADR5000 cells overexpressing p-glycoprotein to IC50 for drug sensitive human CCRF-CEM cells; type: functional

Row | Compound | MIC (Klebsiella pneumoniae [2]) | MIC (Pseudomonas aeruginosa [3]) | MIC (Pseudomonas aeruginosa [4]) | MIC (Providencia stuartii [5]) | MIC (Escherichia coli [6]) | MIC (Pseudomonas aeruginosa [9]) | MIC (Klebsiella pneumoniae [10]) | MIC (Providencia stuartii [11]) | MIC (Staphylococcus aureus [12]) | MIC (Escherichia coli [13]) | MIC (Staphylococcus aureus [14]) | MIC (Escherichia coli [16]) | MIC (Staphylococcus aureus [17]) | MIC (Providencia stuartii [18]) | MIC (Staphylococcus aureus [19]) | MIC (Escherichia coli [20]) | MIC (Providencia stuartii [21]) | MIC (Klebsiella pneumoniae [22]) | MIC (Klebsiella pneumoniae [23]) | MIC (Pseudomonas aeruginosa [24]) | further results
1 | COc1c(CC=C(C)C)c(O)cc2occ(-c3ccc4c(c3)OCO4)c(=O)c12 |  |  |  |  |  |  |  |  |  |  |  |  |  |  |  |  |  |  |  |  | MIC (Providencia stuartii [1]): 25 µg/mL (≈ 65.7 µM)
2 | COc1cc2occ(-c3ccc(O)cc3)c(=O)c2c(OC)c1CC=C(C)C | 16 µg/mL (≈ 43.7 µM) | 130 µg/mL (≈ 355 µM) | 32 µg/mL (≈ 87.3 µM) | 8 µg/mL (≈ 21.8 µM) | 4 µg/mL | 4 µg/mL | 1 µg/mL | 4 µg/mL | 32 µg/mL | 2 µg/mL | 32 µg/mL | 16 µg/mL (≈ 43.7 µM) | 32 µg/mL (≈ 87.3 µM) | 130 µg/mL (≈ 355 µM) | 64 µg/mL (≈ 175 µM) | 130 µg/mL (≈ 355 µM) | 1 µg/mL | 2 µg/mL | 130 µg/mL (≈ 355 µM) | 130 µg/mL | MIC (Providencia stuartii [1]): ≥ 100 µg/mL; inhibition at 10 µM (CCRF-CEM [7]): < 50%; MIC (Staphylococcus aureus [8]): ≥ 100 µg/mL; MIC (Enterococcus faecalis): ≥ 100 µg/mL; MIC (Nannizzia gypsea): 12.5 µg/mL; MIC [15]: 12.5 µg/mL; MIC (Candida albicans): 12.5 µg/mL
3 | COc1cc2occ(-c3ccc4[nH]ccc4c3)c(=O)c2c(OC)c1CC=C(C)C | > 130 µg/mL | 130 µg/mL (≈ 334 µM) | > 130 µg/mL | 130 µg/mL (≈ 334 µM) | 64 µg/mL | 2 µg/mL | 1 µg/mL | 4 µg/mL | 1 µg/mL | 130 µg/mL | 4 µg/mL | 130 µg/mL (≈ 334 µM) | 32 µg/mL (≈ 82.2 µM) | 64 µg/mL (≈ 164 µM) | > 130 µg/mL | 130 µg/mL (≈ 334 µM) | 8 µg/mL | 4 µg/mL | 130 µg/mL (≈ 334 µM) | 8 µg/mL | inhibition at 10 µM (CCRF-CEM [7]): < 50%
4 | COc1cc2occ(-c3ccc(C=O)cc3)c(=O)c2c(OC)c1CC=C(C)C | 130 µg/mL (≈ 344 µM) | 64 µg/mL (≈ 169 µM) | 130 µg/mL (≈ 344 µM) | 64 µg/mL (≈ 169 µM) | 8 µg/mL | 8 µg/mL | 2 µg/mL | 16 µg/mL | 64 µg/mL | 8 µg/mL | 8 µg/mL | 130 µg/mL (≈ 344 µM) | 130 µg/mL (≈ 344 µM) | 130 µg/mL (≈ 344 µM) | 130 µg/mL (≈ 344 µM) | 32 µg/mL (≈ 84.6 µM) | 2 µg/mL | 8 µg/mL | > 130 µg/mL | 16 µg/mL | IC50 (ADR5000 cell line): 20 µM; IC50 (CCRF-CEM [25]): 20 µM
5 | COc1cc2occ(-c3ccc(C#N)cc3)c(=O)c2c(OC)c1CC=C(C)C | > 130 µg/mL | 130 µg/mL (≈ 346 µM) | > 130 µg/mL | 16 µg/mL (≈ 42.6 µM) | 130 µg/mL | 32 µg/mL | 1 µg/mL | 8 µg/mL | 16 µg/mL | 2 µg/mL | 4 µg/mL | 130 µg/mL (≈ 346 µM) | 130 µg/mL (≈ 346 µM) | 130 µg/mL (≈ 346 µM) | 64 µg/mL (≈ 170 µM) | 32 µg/mL (≈ 85.2 µM) | 1 µg/mL | 4 µg/mL | 130 µg/mL (≈ 346 µM) | 32 µg/mL | IC50 (ADR5000 cell line): 20 µM; IC50 (CCRF-CEM [25]): 20 µM
6 | COc1ccc(-c2coc3cc(OC)c(CC=C(C)C)c(OC)c3c2=O)cc1 | > 130 µg/mL | > 130 µg/mL | 64 µg/mL (≈ 168 µM) | 130 µg/mL (≈ 342 µM) | 2 µg/mL | 8 µg/mL | 1 µg/mL | 4 µg/mL | 2 µg/mL | 2 µg/mL | 8 µg/mL | 32 µg/mL (≈ 84.1 µM) | 32 µg/mL (≈ 84.1 µM) | 130 µg/mL (≈ 342 µM) | 64 µg/mL (≈ 168 µM) | 32 µg/mL (≈ 84.1 µM) | 4 µg/mL | 2 µg/mL | 130 µg/mL (≈ 342 µM) | 64 µg/mL | IC50 (SW480): 0.63 µM; inhibition at 10 µM (CCRF-CEM [7]): < 50%; IC50 (RAW264.7): 2.06 µM; IC50 (HL-60): 0.63 µM; IC50 (A549): 0.63 µM; IC50 (MCF7): 0.63 µM; IC50 (SMMC-7721): 0.63 µM
7 | COc1cc2occ(-c3ccc4c(c3)OCO4)c(=O)c2c(OC)c1CC=C(C)C | 16 µg/mL (≈ 40.6 µM) | 64 µg/mL (≈ 162 µM) | 130 µg/mL (≈ 330 µM) | 130 µg/mL (≈ 330 µM) | 32 µg/mL | 4 µg/mL | 1 µg/mL | 32 µg/mL | 2 µg/mL | 64 µg/mL | 32 µg/mL | 130 µg/mL (≈ 330 µM) | 32 µg/mL (≈ 81.1 µM) | 130 µg/mL (≈ 330 µM) | 130 µg/mL (≈ 330 µM) | 130 µg/mL (≈ 330 µM) | 8 µg/mL | 1 µg/mL | 130 µg/mL (≈ 330 µM) | 16 µg/mL | inhibition at 10 µM (CCRF-CEM [7]): < 50%
8 | O=C(O)c1cn(C2CC2)c2cc(N3CCNCC3)c(F)cc2c1=O [CIPROFLOXACIN] |  |  | 4 µg/mL (≈ 12.1 µM) | 2 µg/mL (≈ 6.04 µM) |  | 1 µg/mL |  | 0.5 µg/mL | 1 µg/mL |  | 1 µg/mL |  | 4 µg/mL (≈ 12.1 µM) | 4 µg/mL (≈ 12.1 µM) | 8 µg/mL (≈ 24.1 µM) |  | 0.25 µg/mL |  | 1 µg/mL (≈ 3.02 µM) |  | 
9 | CC(=O)O[C@H]1C(=O)[C@@]2(C)[C@H]([C@H](OC(=O)c3ccccc3)[C@]3(O)C[C@H](OC(=O)[C@H](O)[C@@H](NC(=O)c4ccccc4)c4ccccc4)C(C)=C1C3(C)C)[C@]1(OC(C)=O)CO[C@@H]1C[C@@H]2O [PACLITAXEL] |  |  |  |  |  |  |  |  |  |  |  |  |  |  |  |  |  |  |  |  | Ratio IC50 [26]: 390
